The subject of experiment [1] is S30 extracts from E. faecalis 27263. The experiment in a line: Gram-positive in vitro coupled transcription/translation (T/T) assay, E. faecalis S30 extract. It counts as biochemical. How it is done:
E. faecalis 26273 was grown overnight in 250 ml BHI medium containing 2% bovine serum at 37° C. under microaerophilic conditions. The overnight culture was used to inoculate 4.8 1 BHI medium, cells were incubated at 37° C. under microaerophilic conditions with agitation (170 rpm) until an OD600 nm of ˜1.6 was reached. Preparation of S30 extracts was done as described for S. aureus with the following exceptions. Cells were harvested and washed at 7000×g at 4° C. for 12 min and resuspended in 100 ml S30-buffer B. For cell lysis 15 mg lysozyme resuspended in 1 ml S30-buffer B were added and incubated for 2 h at 37° C. with agitation. To complete cell lysis extracts were passed once through a French Press at 600 psi.
(§1) The final assay volume was 59 μl. Inhibitor (3 μl dissolved in 10% DMSO), plasmid DNA (10 μl of optimal concentration in water pH 8.0) and 46 μl S30 extract [optimal concentration in 23 μl premixed with 23 μl incubation buffer (0.5 M potassium acetate, 87.5 mM Tris/acetate pH 8.0, 67.5 mM ammonium acetate, 50 μg/ml folinic acid, 5 mM DTT, 87.5 mg/ml polyethylene glycol 8000, 5 mM ATP; 1.25 mM of each CTP, GTP and UTP; 0.02 mM amino acids, 50 mM phosphoenolpyruvate trisodium salt, 2.5 mM cyclic AMP, 250 μg of each E. coli tRNA/ml) were added and incubated at 30° C. for 1 h. When using pT7-FF as a template 0.05 μl or 0.1 μl (50 U/μl) T7-RNA-Polymerase (Gibco BRL) were added to the S30 extracts used in the assay. Newly synthesized luciferase was detected by measuring bioluminescence for 60 s in a luininometer after the addition of 50 μl substrate buffer containing luciferine (20 mM Tricine/Cl pH 7.8, 2.67 mM MgSO4, 0.1 mM EDTA, 33.3 mM DTT, 0.27 mM Coenzyme A, 0.47 mM luciferine, 0.53 mM ATP).
(§2) The shape of the inhibition profiles is more or less similar for these compounds, in case of Streptomycin the lower IC50 value for S. aureus 133 compared to E. faecalis 27263 can be seen. templates pXyl-FF and pT7-FF with S30 extracts of the indicated bacterial strains. […] MIC (minimal inhibitory concentration) values were determined as described in Example 4. Numbers in square brackets relate to the unit in square brackets as given in the column heading.

Experiment [2] has as its system S30 extracts from S. pneumoniae 1707/4. The experiment can be described thus: Gram-positive in vitro coupled transcription/translation (T/T) assay, S. pneumoniae S30 extract. It counts as biochemical. How it is done:
S. pneumoniae 1707/4 was grown overnight at 37° C. on agar plates containing 5% sheep blood under microaerophilic conditions. Cells were collected and inoculated into 4.8 l of BHI medium containing 5% bovine serum prior to cultivation at 37° C. under microaerophilic conditions for 5 h. S30 extracts were prepared as described for S. aureus 133 with some modifications. Cells were harvested and washed by centrifugation at 20,000×g for 15 min. The resulting cell pellet was resuspended in 20 ml buffer B, 3 mg lysozyme were added, incubated for 40 min at 37° C. prior to the addition of 75 μl 0.5 M DTT. The S30 sediment was washed with 8 ml buffer B and 7 ml preincubation buffer were added to the pooled supernatants.
as §1, §2

For experiment [3], the system named is S30 extracts from S. aureus 133. The experiment in a line: Gram-positive in vitro coupled transcription/translation (T/T) assay, S. aureus S30 extract. It counts as biochemical. As to the method:
A procedure similar to the preparation of S30 extracts described by Murray et. al. (2) was used for S. aureus. Brain heart infusion (BHI) medium (6 l) was inoculated with 250 ml overnight culture of S. aureus 133 grown in BHI at 37° C. with agitation (170 rpm). Cells were cultured at 37° C. until an OD595nm of 2.5 was reached prior to centrifugation at 6000×g for 15 min at 4° C. Pellets were washed once with 500 ml cold S30-buffer A (10 mM Tris-acetate pH 8.0, 14 mM Mg-acetate, 1 mM DTT, 1 M KCl) and once with 250 ml of cold S30-buffer A containing 50 mM KCl. Pellets were frozen for 1 h at −20° C. or overnight at −70° C., thawed on ice and resuspended to a final volume of 99 ml buffer B (10 mM Tris-acetate pH 8.0, 20 mM Mg-acetate, 1 mM DTT, 50 mM KCl). A 1.5 ml aliquote of lysostaphin (0.8 mg/ml) in buffer B was added to each of three centrifuge tubes and 33 ml of the cell suspension were added. Samples were incubated at 37° C. for 1 h with gentle agitation prior to the addition of 150 μl 0.5 M DTT. Lysed cells were centrifuged for 30 min at 30,000×g at 4° C. and the resulting pellet was washed once with 33 ml S30-buffer B. The pooled supernatants were recentrifuged at 30,000×g for 30 min at 4° C. 100 ml of the supernatant were incubated with 25 ml preincubation buffer (670 mM Tris-acetate pH 8.0, 20 mM Mg-acetate, 7 mM Na3-PEP, 7 mM DTT, 5.5 mM ATP, 70 μM amino acids complete [Promega], 75 μg pyruvate kinase [Sigma]/ml) for 30 min at 37° C. to translate mRNAs. The preincubated supernatants were dialysed at 4° C. against 2 l of 10 mM Tris-acetate pH 8.0, 14 mM Mg-acetate, 1 mM DTT, 60 mM KCl with one buffer change using a Spectra-Por dialysis bag with a molecular weight cutoff of 3,500. The dialysate was gently concentrated by covering the dialysis bag with polyethylene glycol 8,000 powder (Sigma) at 4° C. to a protein concentration of ˜10 mg/ml. The resulting S30 extracts were flash frozen and stored in aliquots at −70° C.
as §1
MIC (minimal inhibitory concentration) values were determined as described in Example 4. Numbers in square brackets relate to the unit in square brackets as given in the column heading.

Experiment [4] deals with S30 extracts derived from all three Gram-positives. The experiment in a line: In vitro coupled T/T assay, for all three Gram-positive S30 extracts. It counts as biochemical, S. aureus, S. pneumoniae, E. faecalis. As to conditions: at high concentrations.
Method: To validate the in vitro coupled T/T assay for screening of potential inhibitors of transcription and translation several antibiotics of known mode of action were tested.
Experiment [5] has as its system E. faecalis 27263. The experiment can be described thus: Minimum inhibitory concentration, micro broth dilution. As to conditions: Enterococcus faecalis, 27263, 24 h. It counts as cell-based. As to the method: (§3) MIC determinations were performed using the micro broth dilution method with an inoculum of 5×10^5 cfu/ml in BHI medium. Growth was read after 24 h of incubation at 37° C. Test compounds were dissolved in dimethyl sulfoxide and diluted to a concentration not higher than 2.5% dimethyl sulfoxide. For S. pneumoniae 1707/4 and E. faecalis 27263 16% bovine serum were added and incubated under microaerophilic conditions.
A general note: In broth dilution the organism is exposed to a series of concentrations in liquid medium.

Experiment [6] concerns S. pneumoniae 1707/4. The experiment is described as above. It is filed as cell-based. The settings on record: Streptococcus pneumoniae, 1707/4, 24 h. How it is done: as §3
For experiment [7], the system named is S. aureus 133. Described as above. It is filed as cell-based. As to conditions: Staphylococcus aureus, 133, 24 h. As to the method:
as §3

The mark [8] stands for this setting: template pT7-FF with T7 RNA polymerase, read-out: IC50.
The mark [9] stands for this setting: template pT7-FF, value in square brackets.
The mark [10] stands for this setting: template pXyl-FF, value in square brackets.

Structures are written as SMILES. In brackets after ≈: the same amount, converted by molar mass. Read-outs that look alike come from different tables or passages of the source.

As to `CN[C@H](CC(C)C)C(=O)N[C@H]1C(=O)N[C@@H](CC(N)=O)C(=O)N[C@H]2C(=O)N[C@H]3C(=O)N[C@H](C(=O)N[C@H](C(=O)O)c4cc(O)cc(O)c4-c4cc3ccc4O)[C@H](O)c3ccc(c(Cl)c3)Oc3cc2cc(c3O[C@@H]2O[C@H](CO)[C@@H](O)[C@H](O)[C@H]2O[C@H]2C[C@](C)(N)[C@H](O)[C@H](C)O2)Oc2ccc(cc2Cl)[C@H]1O` [Vancomycin], the 50% inhibitory concentration (IC50) – broadly, the concentration at which inhibition is half-maximal – in experiment [1] (setting [8]) is above 34 µM; in experiment [1] (setting [9]), above 50 µg/mL; in experiment [1] (template pXyl-FF, read-out: IC50) it was above 34 µM; in experiment [1] (setting [10]), above 50 µg/mL; in experiment [2] (setting [8]), above 34 µM; in experiment [2] (setting [9]), above 50 µg/mL. Further, the IC50 in experiment [3] (setting [8]) was above 34 µM; in experiment [3] (setting [9]), above 50 µg/mL; in experiment [3] (template pXyl-FF, 50% inhibition of in vitro translation of luciferase, read-out: IC50), above 67 µM; in experiment [3] (setting [10]), above 100 µg/mL. The “inhibition in the in vitro coupled T/T assay” value in experiment [4] was “no or only weak inhibition”. Also, the MIC (in general, the smallest concentration in the dilution series that meets the test's criterion for growth inhibition) came out at 2 µg/mL (≈ 1.38 µM) in experiment [5], 0.25 µg/mL (≈ 0.173 µM) in experiment [6] and 0.25 µg/mL (≈ 0.173 µM) in experiment [7].

For the origin of these results see US20080050759A1, “Screening Assay for Anti-Bacterial Compounds” (Bayer Healthcare AG, priority 2003, published 2008).
